We go through one molecule from ChEMBL document CHEMBL1687836, “Oral hexadecyloxypropyl-cidofovir therapy in pregnant guinea pigs improves outcome in the congenital model of cytomegalovirus infection” (Antimicrob Agents Chemother, 2011).

The subject of series [1] is Cavia porcellus. In words: Toxicity in Guinea pig cytomegalovirus strain 22122 infected second and third trimesters of pregnant Hartley guinea pig assessed as dam liver toxicity at 4 mg/kg, po treatment started at 24 hrs post infection for 9 consecutive days. It counts as organism-based. More on the design: dose 4 mg/kg, route oral. To be noted: in vivo.
Series [2] deals with Cavia porcellus. In words: Toxicity in Guinea pig cytomegalovirus strain 22122 infected second and third trimesters of pregnant Hartley guinea pig assessed as dam kidney toxicity at 4 mg/kg, po treatment started at 24 hrs post infection for 9 consecutive days. Type of series: organism-based. More on the design: dose 4 mg/kg, route oral. To be noted: in vivo.
The test system of series [3] is Cavia porcellus. In words: Toxicity in Guinea pig cytomegalovirus strain 22122 infected second and third trimesters of pregnant Hartley guinea pig assessed as pup liver toxicity at 4 mg/kg, po treatment started at 24 hrs post infection for 9 consecutive days. It counts as organism-based. More on the design: dose 4 mg/kg, route oral. To be noted: in vivo.
Series [4] has as its system Cavia porcellus. In words: Toxicity in Guinea pig cytomegalovirus strain 22122 infected second and third trimesters of pregnant Hartley guinea pig assessed as pup kidney toxicity at 4 mg/kg, po treatment started at 24 hrs post infection for 9 consecutive days. Type of series: organism-based. More on the design: dose 4 mg/kg, route oral. To be noted: in vivo.
Series [5] relates to Caviid betaherpesvirus 2. Put plainly: Antiviral activity against Guinea pig cytomegalovirus strain 22122 infected in second and third trimesters of pregnant Hartley guinea pig assessed as reduction in dam viremia at 4 mg/kg, po qd for 5 days. Type of series: functional, organism-based. More on the design: dose 4 mg/kg. To be noted: Guinea pig cytomegalovirus (strain 22122 / ATCC VR682) (GPCMV).

Series [6] deals with Caviid betaherpesvirus 2. Put plainly: Antiviral activity against Guinea pig cytomegalovirus strain 22122 infected in second and third trimesters of pregnant Hartley guinea pig assessed as dam liver with detectable viral DNA at 4 mg/kg, po qd for 5 days measured 10 days post infection by real-time PCR (reference value: 100%). It counts as functional. On the technique in general: Quantitative PCR measures a nucleic acid by following its amplification.

Series [7] has as its system Caviid betaherpesvirus 2. Put plainly: Antiviral activity against Guinea pig cytomegalovirus strain 22122 infected in second and third trimesters of pregnant Hartley guinea pig assessed as dam liver with detectable viral DNA at 4 mg/kg, po qd for 9 days measured 10 days post infection by real-time PCR (reference value: 100%). It counts as functional.
Series [8] relates to Caviid betaherpesvirus 2. Put plainly: Antiviral activity against Guinea pig cytomegalovirus strain 22122 infected in second and third trimesters of pregnant Hartley guinea pig assessed as fetus liver with detectable viral DNA at 4 mg/kg, po qd for 5 days measured 10 days post infection by real-time PCR (reference value: 87%). Type of series: functional.
Series [9] deals with Caviid betaherpesvirus 2. In words: Antiviral activity against Guinea pig cytomegalovirus strain 22122 infected in second and third trimesters of pregnant Hartley guinea pig assessed as fetus liver with detectable viral DNA at 4 mg/kg, po qd for 9 days measured 10 days post infection by real-time PCR (reference value: 87%). Type of series: functional.
Series [10] has as its system Caviid betaherpesvirus 2. Put plainly: Antiviral activity against Guinea pig cytomegalovirus strain 22122 infected in second and third trimesters of pregnant Hartley guinea pig assessed as dam spleen with detectable viral DNA at 4 mg/kg, po qd for 5 days measured 10 days post infection by real-time PCR (reference value: 100%). It counts as functional.
The test system of series [11] is Caviid betaherpesvirus 2. Put plainly: Antiviral activity against Guinea pig cytomegalovirus strain 22122 infected in second and third trimesters of pregnant Hartley guinea pig assessed as dam spleen with detectable viral DNA at 4 mg/kg, po qd for 9 days measured 10 days post infection by real-time PCR (reference value: 100%). Type of series: functional.
Series [12] deals with Caviid betaherpesvirus 2. Put plainly: Antiviral activity against Guinea pig cytomegalovirus strain 22122 infected in second and third trimesters of pregnant Hartley guinea pig assessed as fetus spleen with detectable viral DNA at 4 mg/kg, po qd for 5 days measured 10 days post infection by real-time PCR (reference value: 47%). It counts as functional.
Series [13] deals with Caviid betaherpesvirus 2. In words: Antiviral activity against Guinea pig cytomegalovirus strain 22122 infected in second and third trimesters of pregnant Hartley guinea pig assessed as fetus spleen with detectable viral DNA at 4 mg/kg, po qd for 9 days measured 10 days post infection by real-time PCR (reference value: 47%). Type of series: functional.
For series [14], the system named is Caviid betaherpesvirus 2. Put plainly: Antiviral activity against Guinea pig cytomegalovirus strain 22122 infected in second and third trimesters of pregnant Hartley guinea pig assessed as dam placenta with detectable viral DNA at 4 mg/kg, po qd for 5 days measured 10 days post infection by real-time PCR (reference value: 100%). Type of series: functional.
Series [15] relates to Caviid betaherpesvirus 2. In words: Antiviral activity against Guinea pig cytomegalovirus strain 22122 infected in second and third trimesters of pregnant Hartley guinea pig assessed as dam placenta with detectable viral DNA at 4 mg/kg, po qd for 9 days measured 10 days post infection by real-time PCR (reference value: 100%). Type of series: functional.
Series [16] concerns Caviid betaherpesvirus 2. In words: Antiviral activity against Guinea pig cytomegalovirus strain 22122 infected in second and third trimesters of pregnant Hartley guinea pig assessed as dam liver viral log10 genome copies/ug of DNA at 4 mg/kg, po qd for 5 days measured 10 days post infection by real-time PCR (reference value: 4.82 +/- 0.8 log10 genome copies/ug of DNA). It counts as functional.

In series [17] the test system is Caviid betaherpesvirus 2. Put plainly: Antiviral activity against Guinea pig cytomegalovirus strain 22122 infected in second and third trimesters of pregnant Hartley guinea pig assessed as dam liver viral log10 genome copies/ug of DNA at 4 mg/kg, po qd for 9 days measured 10 days post infection by real-time PCR (reference value: 4.82 +/- 0.8 log10 genome copies/ug of DNA). Type of series: functional.

For series [18], the system named is Caviid betaherpesvirus 2. In words: Antiviral activity against Guinea pig cytomegalovirus strain 22122 infected in second and third trimesters of pregnant Hartley guinea pig assessed as fetus liver viral log10 genome copies/ug of DNA at 4 mg/kg, po qd for 5 days measured 10 days post infection by real-time PCR (reference value: 2.20 +/- 0.6 log10 genome copies/ug of DNA). It counts as functional.

Series [19] deals with Caviid betaherpesvirus 2. Put plainly: Antiviral activity against Guinea pig cytomegalovirus strain 22122 infected in second and third trimesters of pregnant Hartley guinea pig assessed as fetus liver viral log10 genome copies/ug of DNA at 4 mg/kg, po qd for 9 days measured 10 days post infection by real-time PCR (reference value: 2.20 +/- 0.6 log10 genome copies/ug of DNA). It counts as functional.

Series [20] relates to Caviid betaherpesvirus 2. In words: Antiviral activity against Guinea pig cytomegalovirus strain 22122 infected in second and third trimesters of pregnant Hartley guinea pig assessed as dam spleen viral log10 genome copies/ug of DNA at 4 mg/kg, po qd for 5 days measured 10 days post infection by real-time PCR (reference value: 4.12 +/- 0.3 log10 genome copies/ug of DNA). Type of series: functional.

In series [21] the test system is Caviid betaherpesvirus 2. Put plainly: Antiviral activity against Guinea pig cytomegalovirus strain 22122 infected in second and third trimesters of pregnant Hartley guinea pig assessed as dam spleen viral log10 genome copies/ug of DNA at 4 mg/kg, po qd for 9 days measured 10 days post infection by real-time PCR (reference value: 4.12 +/- 0.3 log10 genome copies/ug of DNA). Type of series: functional.

Series [22] deals with Caviid betaherpesvirus 2. Put plainly: Antiviral activity against Guinea pig cytomegalovirus strain 22122 infected in second and third trimesters of pregnant Hartley guinea pig assessed as fetus spleen viral log10 genome copies/ug of DNA at 4 mg/kg, po qd for 5 days measured 10 days post infection by real-time PCR (reference value: 1.63 +/- 0.6 log10 genome copies/ug of DNA). Type of series: functional.

Series [23] has as its system Caviid betaherpesvirus 2. Put plainly: Antiviral activity against Guinea pig cytomegalovirus strain 22122 infected in second and third trimesters of pregnant Hartley guinea pig assessed as fetus spleen viral log10 genome copies/ug of DNA at 4 mg/kg, po qd for 9 days measured 10 days post infection by real-time PCR (reference value: 1.63 +/- 0.6 log10 genome copies/ug of DNA). It counts as functional.

Calls of active or inactive are those of the source. The calls are words filed in the database; no cut-off is given here.

Consider `CCCCCCCCCCCCCCCCOCCCOP(=O)(O)CO[C@H](CO)Cn1ccc(N)nc1=O` [BRINCIDOFOVIR], for which the Activity entry in series [1] was “Non-toxic”; in series [2] it was “Non-toxic”; in series [3], “Non-toxic”; in series [4] it was “Non-toxic”; in series [6], 100%; in series [7] it was 100%. In addition, the Activity is given as 92% in series [8]; 85% in [9]; 100% in [10]; 100% in [11]; 77% in series [12]; 62% in series [13]. Further, the Activity in series [14] amounted to 100%; in series [15], 100%; in [16], 2.98; in [17], 3.01; in series [18], 2.12; in [19] it was 1.87. The Activity is 2.77 in [20], 2.09 in series [21], 1.91 in [22] and 1.65 in [23]. In [5], the result was Active.
